Measurements from US20130274294A1, “4-(Hetero)Aryl-Ethynyl-Octahydro-Indole-1-Esters” (priority 2010, published 2013).
In brackets after ≈: the same amount, converted by molar mass.

What was measured:
[1] = Solubility in Cl-free phosphate buffer (0.067 M), pH 6.8; format: physicochemical; settings: pH 6.8, aqueous buffer
Experimental: Solubility of compounds of the invention was determined in the following buffer: Cl-free phosphate buffer (0.067 M) is made from KH2PO4 solution and titrated to pH 6.8 with NaOH. The table below represents solubility values of compounds of the invention in the above buffer.

[2] = target: T1, human mGluR5a receptors (Homo sapiens, UniProt P41594); test: Inhibition of glutamate-induced elevation of intracellular calcium concentration in L(tk-) cells expressing human mGluR5a receptors; format: cell-based; settings: agonist glutamate
T1 construct: expressed in transfected cells; host or cells: L(tk-) cells (mouse fibroblast line)
T1 sequence (P41594 21-1180 isoform P41594-2 limits assumed): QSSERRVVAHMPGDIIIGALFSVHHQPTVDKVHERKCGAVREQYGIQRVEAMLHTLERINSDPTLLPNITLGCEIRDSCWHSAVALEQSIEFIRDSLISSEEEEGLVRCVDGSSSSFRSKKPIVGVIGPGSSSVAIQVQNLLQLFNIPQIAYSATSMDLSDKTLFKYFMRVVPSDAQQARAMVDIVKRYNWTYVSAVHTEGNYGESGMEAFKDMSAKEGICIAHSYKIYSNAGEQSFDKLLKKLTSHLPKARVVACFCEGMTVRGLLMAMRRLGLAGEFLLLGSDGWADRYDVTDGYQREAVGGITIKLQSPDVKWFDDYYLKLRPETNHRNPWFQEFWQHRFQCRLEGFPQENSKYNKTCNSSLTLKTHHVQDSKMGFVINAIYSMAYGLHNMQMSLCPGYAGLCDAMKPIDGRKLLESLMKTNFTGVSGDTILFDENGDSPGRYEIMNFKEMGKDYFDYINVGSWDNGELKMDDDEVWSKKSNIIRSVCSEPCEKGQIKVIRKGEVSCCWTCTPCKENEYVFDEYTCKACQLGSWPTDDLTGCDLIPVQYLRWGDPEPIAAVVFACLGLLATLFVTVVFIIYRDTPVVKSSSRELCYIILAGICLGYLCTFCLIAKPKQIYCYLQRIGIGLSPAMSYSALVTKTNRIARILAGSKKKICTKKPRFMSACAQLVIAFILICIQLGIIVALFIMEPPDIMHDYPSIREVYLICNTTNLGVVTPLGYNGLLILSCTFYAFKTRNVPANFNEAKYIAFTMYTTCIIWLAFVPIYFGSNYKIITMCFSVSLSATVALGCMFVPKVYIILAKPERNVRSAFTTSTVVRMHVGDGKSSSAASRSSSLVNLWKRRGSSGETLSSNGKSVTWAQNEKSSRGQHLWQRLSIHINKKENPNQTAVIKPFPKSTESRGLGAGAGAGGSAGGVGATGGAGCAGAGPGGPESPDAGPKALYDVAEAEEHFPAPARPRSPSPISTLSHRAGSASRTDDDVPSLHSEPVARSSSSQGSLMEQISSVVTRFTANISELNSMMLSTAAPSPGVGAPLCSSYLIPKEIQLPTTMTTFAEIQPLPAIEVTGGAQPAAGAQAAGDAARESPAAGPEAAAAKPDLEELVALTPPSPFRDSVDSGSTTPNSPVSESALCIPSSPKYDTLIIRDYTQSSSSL
Excerpt: This can be determined in vitro, for example, at recombinant human mGluR5, using different procedures like, for example, measurement of the inhibition of the agonist induced elevation of intracellular Ca^2+ concentration in accordance with L. P. Daggett et al., Neuropharm. Vol. 34, pages 871-886 (1995), P. J. Flor et al., J. Neurochem. Vol. 67, pages 58-63 (1996) or by determination to what extent the agonist induced elevation of the inositol phosphate turnover is inhibited as described by T. Knoepfel et al., Eur. J. Pharmacol. Vol. 288, pages 389-392 (1994), L. P. Daggett et al., Neuropharm. Vol. 67, pages 58-63 (1996) and references cited therein. Isolation and expression of human mGluR subtypes are described in U.S. Pat. No. 5,521,297.
Activity of compounds of the present invention was examined by determination to what extent the glutamate-induced elevation of the intracellular calcium concentration in L(tk-) cells expressing human mGluR5a receptors (see L. P. Daggett et al., Neuropharm. Vol. 34, pages 871-886, 1995) is inhibited by utilizing methods as described e.g. by L. P. Daggett et al., Neuropharm. Vol. 34, pages 871-886 (1995) and P. J. Flor et al., J. Neurochem. Vol. 67, pages 58-63 (1996).
The table below represents IC50 values of the inhibition of the glutamate-induced elevation of the intracellular calcium concentration.

Compound	solubility [1]	IC50 [2]
COC(=O)N1CC[C@@H]2[C@H]1CCC[C@@]2(O)C#Cc1cc(C)ccn1 [Example 6, (3aR,4S,7aR)-methyl 4-hydroxy-4-((4-methylpyridin-2-yl)ethynyl)octahydro-1H-indole-1-carboxylate]	153 µg/mL (≈ 487 µM)	740 nM
COC(=O)N1CC[C@@H]2[C@H]1CCC[C@@]2(O)C#Cc1cncc(C)c1 [Example 2, (3aR,4S,7aR)-methyl 4-hydroxy-4-((5-methylpyridin-3-yl)ethynyl)octahydro-1H-indole-1-carboxylate]	> 300 µg/mL	1100 nM
COC(=O)N1CC[C@@H]2[C@H]1CCC[C@@]2(O)C#Cc1cccc(C)n1 [Example 4, (3aR,4S,7aR)-methyl 4-hydroxy-4-((6-methylpyridin-2-yl)ethynyl)octahydro-1H-indole-1-carboxylate]		1430 nM
CCOC(=O)N1CC[C@@H]2[C@H]1CCC[C@@]2(N)C#Cc1cccc(C)c1 [Example 9, (3aR,4S,7aR)-ethyl 4-amino-4-(m-tolylethynyl)octahydro-1H-indole-1-carboxylate]	> 300 µg/mL	710 nM
COC(=O)N1CC[C@@H]2[C@H]1CCC[C@@]2(N)C#Cc1cccc(C)c1 [Example 8, (3aR,4S,7aR)-methyl 4-amino-4-(m-tolylethynyl)octahydro-1H-indole-1-carboxylate]	> 300 µg/mL	330 nM
COC(=O)N1CC[C@@H]2[C@H]1CCC[C@@]2(O)C#Cc1csc(C)n1 [Example 7, (3aR,4S,7aR)-methyl 4-hydroxy-4-((2-methylthiazol-4-yl)ethynyl)octahydro-1H-indole-1-carboxylate]	> 300 µg/mL	470 nM
COC(=O)N1CC[C@@H]2[C@H]1CCC[C@@]2(O)C#Cc1cccc(Cl)c1 [Example 1, (3aR,4S,7aR)-methyl 4-((3-chlorophenyl)ethynyl)-4-hydroxyoctahydro-1H-indole-1-carboxylate]	103 µg/mL (≈ 309 µM)	16 nM
COC(=O)N1CC[C@@H]2[C@H]1CCC[C@@]2(O)C#Cc1ccnc(Cl)c1 [Example 5, (3aR,4S,7aR)-methyl 4-((2-chloropyridin-4-yl)ethynyl)-4-hydroxyoctahydro-1H-indole-1-carboxylate]	175 µg/mL (≈ 523 µM)	146 nM
COC(=O)N1CC[C@@H]2[C@H]1CCC[C@@]2(O)C#Cc1ccnc(C)c1 [Example 3, (3aR,4S,7aR)-methyl 4-hydroxy-4-((2-methylpyridin-4-yl)ethynyl)octahydro-1H-indole-1-carboxylate]	> 300 µg/mL	530 nM
